Read-outs that look alike come from different tables or passages of the source.
Legend:
pan-HDAC [1] = experiment: Whole-cell HDAC inhibition assay in HeLa cells; conditions: read-out: HDAC inhibition IC50 HeLa, 18 hr incubation, Boc-Lys(ε-Ac)-AMC substrate
Method: (§3) Three wells defined as 100% initial activity and three wells defined as background and three wells for each concentration were seeded. […] The test compounds, were dissolved in dimethyl sulfoxide (final concentrations of DMSO per well was 0.1% V/V) and their concentrations adjusted to 70, 40, 20, 5, 1 μM through dilution with the growth medium. The first step of reaction was started by adding 10 µl of 3 mM Boc-Lys (ε-Ac)-AMC (Bachem, Switzerland) to each well to reach a final concentration of 0.3 mM. Then, cells were incubated with the Boc-Lys (ε-Ac)-AMC for 3 hr under cell culture conditions. […] The final volume of the solution (210 µl per well) were transferred to the black 96-well microplate with flat clear bottom. We calculated fluorescence intensity at an excitation of 360 nm and emission of 470 nm in a NOVO star microplate reader (BMGLabTech, Germany).

pan-HDAC [2] = experiment: Whole-cell HDAC inhibition assay in HCT116 cells; conditions: read-out: HDAC inhibition IC50 HCT116, HCT116, 18 hr incubation, Boc-Lys(ε-Ac)-AMC substrate
Method: as §3

HCT116 cells = experiment: AlamarBlue cytotoxicity assay, HCT116; assay type: cell-based; conditions: Homo sapiens, HCT-116, 48 hr treatment
Method: (§1) Cervical (HeLa), ovarian (A2780), and lung (A549) cancer cells, obtained from Biotechnology Laboratory stocks, Biotechnology Research Center (Mashhad, Iran) and colon (HCT116) obtained from National Cell Bank of Iran (NCBI), Pasteur Institute of Iran, Tehran (Iran).
(§2) In vitro cytotoxicity tests were performed using a nonfluorescent substrate, AlamarBlue® (Paisely, UK) cell viability assay as described with some modifications (16). […] After counting, the cells were seeded in 96-well microplates (1 × 10^4 cells/100 µl in each well) and cultivated for 24 hr before addition of test compounds. Triplicate plates for three wells of each concentration were seeded. […] Thereafter, 10 μl of AlamarBlue® reagent was added and incubated for another 4 hr. Then, absorbance was measured at 600 nm using an ELISA microplate reader (Epoch; USA). IC50 values were calculated by nonlinear regression analysis using GraphPad prism (Version 6.0) software.

HeLa cells = experiment: AlamarBlue cytotoxicity assay, HeLa; assay type: cell-based; conditions: Homo sapiens, 48 hr treatment
Method: as §1, §2

A2780 cells = experiment: AlamarBlue cytotoxicity assay, A2780; assay type: cell-based; conditions: Homo sapiens, 48 hr treatment
Method: as §1, §2

A549 cells = experiment: AlamarBlue cytotoxicity assay, A549; assay type: cell-based; conditions: Homo sapiens, 48 hr treatment
Method: as §1, §2

[3] = tested on: human cancer cell lines (HeLa, HCT116, A2780 and A549); experiment: AlamarBlue cytotoxicity, summary over the four cancer cell lines; assay type: cell-based; conditions: collective range, read-out: Cytotoxic activity IC50 against cancer cells (range over cell lines and compounds)
Method: as §1, §2

pan-HDAC [4] = experiment: Whole-cell pan-HDAC inhibition, summary over HeLa and HCT116; conditions: read-out: pan-HDAC inhibitory activity IC50 (range over HeLa and HCT116), collective range
Method: as §3

| SMILES | IC50 (pan-HDAC [1]) [µM] | IC50 (pan-HDAC [2]) [µM] | IC50 (pan-HDAC [4]) [µM] | IC50 (HCT116 cells) [µM] | IC50 (HeLa cells) [µM] | IC50 (A2780 cells) [µM] | IC50 (A549 cells) [µM] | IC50 [3] [µM] | IC50 ([3]; Homo sapiens) [µM] |
| --- | --- | --- | --- | --- | --- | --- | --- | --- | --- |
| CC1=CC(=O)C2C(C)(C)C(=O)CC[C@@]2(C)[C@@H]1COc1ccc2ccc(=O)oc2c1 (some centres unmarked) [Conferdione (9), Conferdione] | 17.4 ± 0.5 | > 70 | – | 50.9 ± 5.19 | 41.7 ± 11.1 | 38.8 ± 9.88 | 32.7 ± 7.96 | – | – |
| CC1=CCC2C(C)(C)C(=O)CC[C@@]2(C)[C@@H]1COc1ccc2ccc(=O)oc2c1 (some centres unmarked) [Conferone (6), Conferone] | 1.17 ± 0.06 | 1.06 ± 0.15 | 1.06 to 1.17 | 31.8 ± 8.33 | 38.2 ± 7.8 | 32.4 ± 9.83 | 39.2 ± 5.23 | < 50 | – |
| CC1=CC(OC2OC(CO)C(O)C(O)C2O)C2C(C)(C)C(=O)CC[C@@]2(C)[C@@H]1COc1ccc2ccc(=O)oc2c1 (some centres unmarked) [Conferoside (10), Conferoside] | 35.27 ± 0.16 | 9.94 ± 1.89 | – | 35.3 ± 6.98 | 40 ± 7.99 | 36.4 ± 12.3 | 45.8 ± 6.39 | – | 11.6 to 49.4 |
| C=C1CCC(=O)C(C)(C)[C@H]1CC/C(C)=C/COc1ccc2ccc(=O)oc2c1 [Farnesiferone B (5), Farnesiferone B] | > 70 | 40.4 ± 1.09 | – | 50.1 ± 6.29 | 71.6 ± 6.4 | 78.9 ± 6.74 | 72.5 ± 4.83 | – | – |
| CC1=CC[C@@H]2C(C)(C)[C@H](O)CC[C@@]2(C)[C@@H]1COc1ccc2ccc(=O)oc2c1 [Feselol (7), Feselol] | 10.7 ± 1.31 | 5.29 ± 0.22 | – | 28.4 ± 8.1 | 34.8 ± 7.94 | 20.2 ± 9.68 | 25.5 ± 5.86 | – | 11.6 to 49.4 |
| CCC(C)SS/C=C\COC(C)=O (centres unmarked) [Latisulfide A (13), Latisulfide A] | > 70 | > 70 | – | > 100 | 77.6 ± 3.43 | > 100 | > 100 | – | – |
| C=C(C)C(=O)OC/C=C\SSC(C)CC (centres unmarked) [Latisulfide B (14), Latisulfide B] | > 70 | > 70 | – | > 100 | > 100 | > 100 | > 100 | – | – |
| C/C=C(/C)C(=O)OC/C=C\SSC(C)CC (centres unmarked) [Latisulfide C (15), Latisulfide C] | 10.6 ± 0.77 | 25.91 ± 0.14 | – | 47.2 ± 8.18 | 18.7 ± 8.5 | 49.4 ± 6.2 | 47.9 ± 4.73 | – | 11.6 to 49.4 |

Further lines, with some results ahead:

| IC50 (pan-HDAC [1]) [µM] | IC50 (pan-HDAC [2]) [µM] | IC50 (pan-HDAC [4]) [µM] | SMILES | IC50 (HCT116 cells) [µM] | IC50 (HeLa cells) [µM] | IC50 (A2780 cells) [µM] | IC50 (A549 cells) [µM] | IC50 [3] [µM] | IC50 ([3]; Homo sapiens) [µM] |
| --- | --- | --- | --- | --- | --- | --- | --- | --- | --- |
| > 70 | > 70 | – | CCC(C)SS/C=C\CO (centres unmarked) [Latisulfide D (16), Latisulfide D] | > 100 | > 100 | > 100 | > 100 | – | – |
| 5.02 ± 0.29 | 19.9 ± 0.69 | – | CCC(C)SS/C=C\COC(=O)/C=C/c1ccc(O)c(OC)c1 (centres unmarked) [Latisulfide E (17), Latisulfide E] | 57.1 ± 5.21 | 30.6 ± 14.9 | 71.3 ± 6.52 | 69.7 ± 7.71 | – | – |
| 2.86 ± 1.4 | 26.44 ± 0.03 | – | CC1=CC(=O)[C@@H]2C(C)(C)[C@H](O)CC[C@@]2(C)[C@@H]1COc1ccc2ccc(=O)oc2c1 [Ligupersin A (8), Ligupersin A] | 68.5 ± 7.41 | 22.9 ± 6.82 | 39.5 ± 10.8 | 33.5 ± 9.58 | – | – |
| 5.47 ± 0.89 | 4.41 ± 0.24 | – | CCC(C)SS/C=C/COC(=O)CC(C)(C)OC(C)=O (centres unmarked) [Persicasulfide A (2), Persicasulfide A] | 11.6 ± 10.5 | 11.8 ± 11.6 | 19.4 ± 7.29 | 15.3 ± 6.77 | – | 11.6 to 49.4 |
| > 70 | > 70 | – | CCC(C)SS/C=C/COC(=O)CC(C)(C)O (centres unmarked) [Persicasulfide C (3), Persicasulfide C] | > 100 | 64.8 ± 1.01 | > 100 | > 100 | – | – |
| > 70 | 14.93 ± 0.08 | – | COc1cc(C(=O)OC2C3(C)CCC(C3)C2(C)C)ccc1O (centres unmarked) [Stylosin (19), Stylosin] | 42.1 ± 6.1 | 54.8 ± 7.53 | 25.5 ± 5.96 | – | – | – |
| > 70 | > 70 | – | CC(C)=CCC/C(C)=C/CC/C(C)=C/COc1ccc2ccc(=O)oc2c1 [Umbelliprenin (4), Umbelliprenin] | > 100 | > 100 | > 100 | > 100 | – | – |

Reference: PMC6437461, “Histone deacetylase inhibitory and cytotoxic activities of the constituents from the roots of three species of Ferula” (Iranian Journal of Basic Medical Sciences, 2019)
